Data: patent US12162840B2, “Herbicidal compositions” (SYNGENTA PARTICIPATIONS AG, priority 2018, dated 2024)

System: cool season plant species
Assay: B2 Post-emergence efficacy Test 2, cool season plant species
Assay type: in vivo
Details: 15 days after application, 0=no damage, 100=total kill
Protocol: Seeds of a variety of test species (see Table B1) were sown in standard soil in pots. After cultivation for 12 days (post-emergence) under controlled conditions in a glasshouse (at 24/18° C. or 20/16° C., at day/night; 16 hours light; 65% humidity), the plants were sprayed with an aqueous spray solution derived from the formulation of the technical active ingredient dissolved in IF50 (see Table B2 for composition) and adjuvant (Genapol XO80) was added to the spray solution at a rate of 0.2% v/v. [table] [table] After application, the test plants were grown in a glasshouse under controlled conditions (as above) and watered twice daily. Herbicidal activity was evaluated 15 days after application on a 0-100 scale. The results, where 0=no damage to test plant and 100=total kill of test plant are shown below in Tables 6 to 9.

Cc1nn(C)c(=O)c(-c2c(F)ccc(Cl)c2CCc2ccccc2C(F)(F)F)c1O [Compound 1.066]
Herbicidal activity (0-100 scale) ALOMY (15 g/Ha): 20
Herbicidal activity (0-100 scale) ALOMY (30 g/Ha): 50
Herbicidal activity (0-100 scale) ALOMY (60 g/Ha): 70
Herbicidal activity (0-100 scale) ALOMY (125 g/Ha): 80
Herbicidal activity (0-100 scale) ALOMY (250 g/Ha): 90
Herbicidal activity (0-100 scale) ALOMY (500 g/Ha): 90
Herbicidal activity (0-100 scale) AVEFA (15 g/Ha): 0
Herbicidal activity (0-100 scale) AVEFA (30 g/Ha): 20
Herbicidal activity (0-100 scale) AVEFA (60 g/Ha): 40
Herbicidal activity (0-100 scale) AVEFA (125 g/Ha): 90
Herbicidal activity (0-100 scale) AVEFA (250 g/Ha): 90
Herbicidal activity (0-100 scale) AVEFA (500 g/Ha): 90
Herbicidal activity (0-100 scale) BEAVA (15 g/Ha): 80
Herbicidal activity (0-100 scale) BEAVA (30 g/Ha): 80
Herbicidal activity (0-100 scale) BEAVA (60 g/Ha): 80
Herbicidal activity (0-100 scale) BEAVA (125 g/Ha): 80
Herbicidal activity (0-100 scale) BEAVA (250 g/Ha): 80
Herbicidal activity (0-100 scale) BEAVA (500 g/Ha): 90
Herbicidal activity (0-100 scale) BROTE (15 g/Ha): 0
Herbicidal activity (0-100 scale) BROTE (30 g/Ha): 20
Herbicidal activity (0-100 scale) BROTE (60 g/Ha): 60
Herbicidal activity (0-100 scale) BROTE (125 g/Ha): 70
Herbicidal activity (0-100 scale) BROTE (250 g/Ha): 80
Herbicidal activity (0-100 scale) BROTE (500 g/Ha): 90
Herbicidal activity (0-100 scale) BRSNN (15 g/Ha): 90
Herbicidal activity (0-100 scale) BRSNN (30 g/Ha): 90
Herbicidal activity (0-100 scale) BRSNN (60 g/Ha): 90
Herbicidal activity (0-100 scale) BRSNN (125 g/Ha): 90
Herbicidal activity (0-100 scale) BRSNN (250 g/Ha): 90
Herbicidal activity (0-100 scale) BRSNN (500 g/Ha): 90
Herbicidal activity (0-100 scale) CHEAL (30 g/Ha): 90
Herbicidal activity (0-100 scale) CHEAL (60 g/Ha): 90
Herbicidal activity (0-100 scale) CHEAL (125 g/Ha): 90
Herbicidal activity (0-100 scale) CHEAL (250 g/Ha): 100
Herbicidal activity (0-100 scale) CHEAL (500 g/Ha): 100
Herbicidal activity (0-100 scale) GALAP (15 g/Ha): 20
Herbicidal activity (0-100 scale) GALAP (30 g/Ha): 20
Herbicidal activity (0-100 scale) GALAP (60 g/Ha): 20
Herbicidal activity (0-100 scale) GALAP (125 g/Ha): 20
Herbicidal activity (0-100 scale) GALAP (250 g/Ha): 30
Herbicidal activity (0-100 scale) GALAP (500 g/Ha): 90
Herbicidal activity (0-100 scale) HORVW (15 g/Ha): 0
Herbicidal activity (0-100 scale) HORVW (30 g/Ha): 10
Herbicidal activity (0-100 scale) HORVW (60 g/Ha): 20
Herbicidal activity (0-100 scale) HORVW (125 g/Ha): 70
Herbicidal activity (0-100 scale) HORVW (250 g/Ha): 80
Herbicidal activity (0-100 scale) HORVW (500 g/Ha): 90
Herbicidal activity (0-100 scale) KCHSC (15 g/Ha): 0
Herbicidal activity (0-100 scale) KCHSC (30 g/Ha): 0
Herbicidal activity (0-100 scale) KCHSC (60 g/Ha): 0
Herbicidal activity (0-100 scale) KCHSC (125 g/Ha): 10
Herbicidal activity (0-100 scale) KCHSC (250 g/Ha): 20
Herbicidal activity (0-100 scale) KCHSC (500 g/Ha): 20
Herbicidal activity (0-100 scale) LOLPE (15 g/Ha): 10
Herbicidal activity (0-100 scale) LOLPE (30 g/Ha): 20
Herbicidal activity (0-100 scale) LOLPE (60 g/Ha): 80
Herbicidal activity (0-100 scale) LOLPE (125 g/Ha): 90
Herbicidal activity (0-100 scale) LOLPE (250 g/Ha): 90
Herbicidal activity (0-100 scale) LOLPE (500 g/Ha): 100
Herbicidal activity (0-100 scale) POAAN (15 g/Ha): 20
Herbicidal activity (0-100 scale) POAAN (30 g/Ha): 70
Herbicidal activity (0-100 scale) POAAN (60 g/Ha): 80
Herbicidal activity (0-100 scale) POAAN (125 g/Ha): 90
Herbicidal activity (0-100 scale) POAAN (250 g/Ha): 90
Herbicidal activity (0-100 scale) POAAN (500 g/Ha): 90
Herbicidal activity (0-100 scale) POLCO (15 g/Ha): 70
Herbicidal activity (0-100 scale) POLCO (30 g/Ha): 80
Herbicidal activity (0-100 scale) POLCO (60 g/Ha): 90
Herbicidal activity (0-100 scale) POLCO (125 g/Ha): 90
Herbicidal activity (0-100 scale) POLCO (250 g/Ha): 100
Herbicidal activity (0-100 scale) POLCO (500 g/Ha): 100
Herbicidal activity (0-100 scale) SINAR (15 g/Ha): 60
Herbicidal activity (0-100 scale) SINAR (30 g/Ha): 60
Herbicidal activity (0-100 scale) SINAR (60 g/Ha): 80
Herbicidal activity (0-100 scale) SINAR (125 g/Ha): 90
Herbicidal activity (0-100 scale) SINAR (250 g/Ha): 90
Herbicidal activity (0-100 scale) SINAR (500 g/Ha): 90
Herbicidal activity (0-100 scale) STEME (15 g/Ha): 80
Herbicidal activity (0-100 scale) STEME (30 g/Ha): 60
Herbicidal activity (0-100 scale) STEME (60 g/Ha): 90
Herbicidal activity (0-100 scale) STEME (125 g/Ha): 90
Herbicidal activity (0-100 scale) STEME (250 g/Ha): 90
Herbicidal activity (0-100 scale) STEME (500 g/Ha): 100
Herbicidal activity (0-100 scale) TRZAW (15 g/Ha): 0
Herbicidal activity (0-100 scale) TRZAW (30 g/Ha): 10
Herbicidal activity (0-100 scale) TRZAW (60 g/Ha): 40
Herbicidal activity (0-100 scale) TRZAW (125 g/Ha): 60
Herbicidal activity (0-100 scale) TRZAW (250 g/Ha): 70
Herbicidal activity (0-100 scale) TRZAW (500 g/Ha): 80
Herbicidal activity (0-100 scale) VERPE (15 g/Ha): 80
Herbicidal activity (0-100 scale) VERPE (30 g/Ha): 90
Herbicidal activity (0-100 scale) VERPE (60 g/Ha): 100
Herbicidal activity (0-100 scale) VERPE (125 g/Ha): 100
Herbicidal activity (0-100 scale) VERPE (250 g/Ha): 100
Herbicidal activity (0-100 scale) VERPE (500 g/Ha): 100
